Results from PubChem BioAssay AID1745860.

Target: Sodium-dependent noradrenaline transporter (Homo sapiens) (UniProt P23975)
Experiment: SLC6A2 noradrenaline transporter inhibitors, dose response, HEK293 JumpIn overexpressing cells, impedance (AID 1745860)
Conditions: HEK293 JumpIn SLC6A2 OE, impedance TRACT

Sequence of Sodium-dependent noradrenaline transporter (Homo sapiens) (P23975 whole entry, looked up): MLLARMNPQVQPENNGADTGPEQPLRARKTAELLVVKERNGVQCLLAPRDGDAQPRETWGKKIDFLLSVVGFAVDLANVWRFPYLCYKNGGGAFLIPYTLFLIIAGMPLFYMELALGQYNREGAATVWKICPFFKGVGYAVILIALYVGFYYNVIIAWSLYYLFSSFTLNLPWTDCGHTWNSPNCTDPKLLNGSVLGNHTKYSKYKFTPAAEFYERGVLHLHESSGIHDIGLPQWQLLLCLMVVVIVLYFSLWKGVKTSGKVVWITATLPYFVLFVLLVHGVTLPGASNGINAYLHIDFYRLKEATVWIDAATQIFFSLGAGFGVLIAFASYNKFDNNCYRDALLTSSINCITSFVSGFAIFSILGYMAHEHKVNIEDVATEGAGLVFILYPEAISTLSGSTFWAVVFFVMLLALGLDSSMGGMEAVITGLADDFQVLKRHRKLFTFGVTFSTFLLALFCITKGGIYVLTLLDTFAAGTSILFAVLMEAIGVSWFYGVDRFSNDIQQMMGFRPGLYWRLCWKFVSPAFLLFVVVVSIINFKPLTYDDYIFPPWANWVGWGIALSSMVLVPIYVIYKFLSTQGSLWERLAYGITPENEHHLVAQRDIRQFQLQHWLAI

IC50: 4 µM
Compound: CNC[C@H](O)c1ccc(O)c(O)c1
